How the values were obtained:
Type in all cases: functional
M14 = assay: Cytotoxicity against human M14 cells after 48 hrs by sulforhodamine B assay; conditions: M14, 48 h
SK-OV-3 = assay: Cytotoxicity against human SKOV3 cells after 48 hrs by sulforhodamine B assay; conditions: SK-OV-3, 48 h
HCC 2998 = assay: Cytotoxicity against human HCC2998 cells after 48 hrs by sulforhodamine B assay; conditions: HCC 2998, 48 h
MCF7 = assay: Cytotoxicity against human MCF7 cells after 48 hrs by sulforhodamine B assay; conditions: MCF7, 48 h
CCRF-CEM = assay: Cytotoxicity against human CCRF-CEM cells after 48 hrs by sulforhodamine B assay
PC-3 = assay: Cytotoxicity against human PC3 cells after 48 hrs by sulforhodamine B assay; conditions: PC-3, 48 h
MDA-MB-468 = assay: Cytotoxicity against human MDA-MB-468 cells after 48 hrs by sulforhodamine B assay; conditions: MDA-MB-468, 48 h
U-251 = assay: Cytotoxicity against human U251 cells after 48 hrs by sulforhodamine B assay; conditions: U-251, 48 h
MOLT-4 = assay: Cytotoxicity against human MOLT4 cells after 48 hrs by sulforhodamine B assay; conditions: MOLT-4, 48 h
SN12C = assay: Cytotoxicity against human SN12C cells after 48 hrs by sulforhodamine B assay
UACC-62 = assay: Cytotoxicity against human UACC62 cells after 48 hrs by sulforhodamine B assay; conditions: UACC-62, 48 h
HOP-92 = assay: Cytotoxicity against human HOP92 cells after 48 hrs by sulforhodamine B assay; conditions: HOP-92, 48 h
[1] = Cytotoxicity against human EKVX cells after 48 hrs by sulforhodamine B assay
ACHN = assay: Cytotoxicity against human ACHN cells after 48 hrs by sulforhodamine B assay
LOX IMVI = assay: Cytotoxicity against human LOXIMVI cells after 48 hrs by sulforhodamine B assay
[2] = Cytotoxicity against human Hs 578T cells after 48 hrs by sulforhodamine B assay
OVCAR-3 = assay: Cytotoxicity against human OVCAR3 cells after 48 hrs by sulforhodamine B assay; conditions: OVCAR-3, 48 h
HOP-62 = assay: Cytotoxicity against human HOP62 cells after 48 hrs by sulforhodamine B assay; conditions: HOP-62, 48 h
SF-539 = assay: Cytotoxicity against human SF539 cells after 48 hrs by sulforhodamine B assay; conditions: SF-539, 48 h
KM12 = assay: Cytotoxicity against human KM12 cells after 48 hrs by sulforhodamine B assay; conditions: KM12, 48 h
786-0 = assay: Cytotoxicity against human 786-0 cells after 48 hrs by sulforhodamine B assay; conditions: 786-0, 48 h
K562 = assay: Cytotoxicity against human K562 cells after 48 hrs by sulforhodamine B assay; conditions: K562, 48 h
CAKI-1 = assay: Cytotoxicity against human CAKI-1 cells after 48 hrs by sulforhodamine B assay; conditions: CAKI-1, 48 h
SR = assay: Cytotoxicity against human SR cells after 48 hrs by sulforhodamine B assay
HCT-116 = assay: Cytotoxicity against human HCT116 cells after 48 hrs by sulforhodamine B assay; conditions: HCT-116, 48 h
T47D = assay: Cytotoxicity against human T47D cells after 48 hrs by sulforhodamine B assay
OVCAR-5 = assay: Cytotoxicity against human OVCAR5 cells after 48 hrs by sulforhodamine B assay; conditions: OVCAR-5, 48 h
SF-268 = assay: Cytotoxicity against human SF268 cells after 48 hrs by sulforhodamine B assay; conditions: SF-268, 48 h
OVCAR-4 = assay: Cytotoxicity against human OVCAR4 cells after 48 hrs by sulforhodamine B assay; conditions: OVCAR-4, 48 h
UO-31 = assay: Cytotoxicity against human UO31 cells after 48 hrs by sulforhodamine B assay; conditions: UO-31, 48 h
Malme-3M = assay: Cytotoxicity against human MALME-3M cells after 48 hrs by sulforhodamine B assay
HT-29 = assay: Cytotoxicity against human HT-29 cells after 48 hrs by sulforhodamine B assay; conditions: HT-29, 48 h
SNB-19 = assay: Cytotoxicity against human SNB19 cells after 48 hrs by sulforhodamine B assay; conditions: SNB-19, 48 h
MDA-MB-435 = assay: Cytotoxicity against human MDA-MB-435 cells after 48 hrs by sulforhodamine B assay; conditions: MDA-MB-435, 48 h
RXF 393 = assay: Cytotoxicity against human RXF393 cells after 48 hrs by sulforhodamine B assay; conditions: RXF 393, 48 h
NCI-H23 = assay: Cytotoxicity against human NCI-H23 cells after 48 hrs by sulforhodamine B assay; conditions: NCI-H23, 48 h
NCI-H322M = assay: Cytotoxicity against human NCI-H322M cells after 48 hrs by sulforhodamine B assay
NCI/ADR-RES = assay: Cytotoxicity against human NCI/ADR-RES cells after 48 hrs by sulforhodamine B assay
SK-MEL-2 = assay: Cytotoxicity against human SK-MEL-2 cells after 48 hrs by sulforhodamine B assay; conditions: SK-MEL-2, 48 h
A498 = assay: Cytotoxicity against human A498 cells after 48 hrs by sulforhodamine B assay; conditions: A498, 48 h
HL-60(TB) = assay: Cytotoxicity against human HL-60(TB) cells after 48 hrs by sulforhodamine B assay; conditions: HL-60, 48 h
NCI-H226 = assay: Cytotoxicity against human NCI-H226 cells after 48 hrs by sulforhodamine B assay; conditions: NCI-H226, 48 h
SF-295 = assay: Cytotoxicity against human SF295 cells after 48 hrs by sulforhodamine B assay; conditions: SF-295, 48 h
OVCAR-8 = assay: Cytotoxicity against human OVCAR8 cells after 48 hrs by sulforhodamine B assay; conditions: OVCAR-8, 48 h
COLO 205 = assay: Cytotoxicity against human COLO205 cells after 48 hrs by sulforhodamine B assay; conditions: COLO 205, 48 h
IGROV-1 = assay: Cytotoxicity against human IGROV1 cells after 48 hrs by sulforhodamine B assay; conditions: IGROV-1, 48 h
BT-549 = assay: Cytotoxicity against human BT549 cells after 48 hrs by sulforhodamine B assay; conditions: BT-549, 48 h
SK-MEL-28 = assay: Cytotoxicity against human SK-MEL-28 cells after 48 hrs by sulforhodamine B assay; conditions: SK-MEL-28, 48 h
SK-MEL-5 = assay: Cytotoxicity against human SK-MEL-5 cells after 48 hrs by sulforhodamine B assay; conditions: SK-MEL-5, 48 h
TK-10 = assay: Cytotoxicity against human TK10 cells after 48 hrs by sulforhodamine B assay; conditions: TK-10, 48 h
NCI-H522 = assay: Cytotoxicity against human NCI-H522 cells after 48 hrs by sulforhodamine B assay; conditions: NCI-H522, 48 h
HCT-15 = assay: Cytotoxicity against human HCT15 cells after 48 hrs by sulforhodamine B assay; conditions: HCT-15, 48 h
DU-145 = assay: Cytotoxicity against human DU145 cells after 48 hrs by sulforhodamine B assay; conditions: DU-145, 48 h
SW-620 = assay: Cytotoxicity against human SW620 cells after 48 hrs by sulforhodamine B assay; conditions: SW-620, 48 h
MDA-MB-231 = assay: Cytotoxicity against human MDA-MB-231 cells after 48 hrs by sulforhodamine B assay; conditions: MDA-MB-231, 48 h
SNB-75 = assay: Cytotoxicity against human SNB75 cells after 48 hrs by sulforhodamine B assay; conditions: SNB-75, 48 h
NCI-H460 = assay: Cytotoxicity against human NCI-H460 cells after 48 hrs by sulforhodamine B assay; conditions: NCI-H460, 48 h
A549 = assay: Cytotoxicity against human A549/ATCC cells after 48 hrs by sulforhodamine B assay; conditions: A549, 48 h
UACC-257 = assay: Cytotoxicity against human UACC257 cells after 48 hrs by sulforhodamine B assay; conditions: UACC-257, 48 h

Structure (SMILES): CCN(CC)c1ccc(/C=N/NC(=O)Cc2ccc(Nc3ccnc(C(F)(F)F)c3)cc2)c(O)c1
- GI50 (M14): 0.525 µM
- GI50 (SK-OV-3): 0.363 µM
- GI50 (HCC 2998): 0.646 µM
- GI50 (MCF7): 0.407 µM
- GI50 (CCRF-CEM): 0.316 µM
- GI50 (PC-3): 2 µM
- GI50 (MDA-MB-468): 0.389 µM
- GI50 (U-251): 0.501 µM
- GI50 (MOLT-4): 0.501 µM
- GI50 (SN12C): 0.977 µM
- GI50 (UACC-62): 0.398 µM
- GI50 (HOP-92): 1.74 µM
- GI50 [1]: 0.398 µM
- GI50 (ACHN): 0.398 µM
- GI50 (LOX IMVI): 0.398 µM
- GI50 [2]: 2.19 µM
- GI50 (OVCAR-3): 0.794 µM
- GI50 (HOP-62): 0.501 µM
- GI50 (SF-539): 0.479 µM
- GI50 (KM12): 0.676 µM
- GI50 (786-0): 0.437 µM
- GI50 (K562): 0.55 µM
- GI50 (CAKI-1): 0.398 µM
- GI50 (SR): 0.251 µM
- GI50 (HCT-116): 0.398 µM
- GI50 (T47D): 0.631 µM
- GI50 (OVCAR-5): 0.776 µM
- GI50 (SF-268): 0.537 µM
- GI50 (OVCAR-4): 0.513 µM
- GI50 (UO-31): 0.389 µM
- GI50 (Malme-3M): 1 µM
- GI50 (HT-29): 0.676 µM
- GI50 (SNB-19): 0.525 µM
- GI50 (MDA-MB-435): 0.912 µM
- GI50 (RXF 393): 1 µM
- GI50 (NCI-H23): 1.05 µM
- GI50 (NCI-H322M): 0.398 µM
- GI50 (NCI/ADR-RES): 0.537 µM
- GI50 (SK-MEL-2): 4.9 µM
- GI50 (A498): 5.01 µM
- GI50 (HL-60(TB)): 0.339 µM
- GI50 (NCI-H226): 0.676 µM
- GI50 (SF-295): 0.501 µM
- GI50 (OVCAR-8): 0.501 µM
- GI50 (COLO 205): 0.437 µM
- GI50 (IGROV-1): 0.501 µM
- GI50 (BT-549): 1.35 µM
- GI50 (SK-MEL-28): 0.813 µM
- GI50 (SK-MEL-5): 0.309 µM
- GI50 (TK-10): 0.417 µM
- GI50 (NCI-H522): 0.575 µM
- GI50 (HCT-15): 0.407 µM
- GI50 (DU-145): 0.813 µM
- GI50 (SW-620): 0.813 µM
- GI50 (MDA-MB-231): 1.12 µM
- GI50 (SNB-75): 2.51 µM
- GI50 (NCI-H460): 0.316 µM
- GI50 (A549): 0.832 µM
- GI50 (UACC-257): 1.91 µM
